Data published in patent US20120015939A1, “TOPICAL TREATMENT OF NEUROPATHIC PAIN AND METHODS OF DIAGNOSIS” (Arcion Therapeutics, Inc., priority 2010, published 2012).
Like-named read-outs stand apart in the source and are kept apart here.

Experiments:
[1] = tested on: painful diabetic neuropathy; settings: systemic clonidine by transdermal patches; cross-over; cited from earlier work
[2] = in vivo; cited from earlier work
[3] = topical 0.1% and 0.2% clonidine
Method: The dosage formulation is administered from once a day to several times a day, depending on the patient. […] The dose is determined by the region of pain. […] The area treated is constrained by the systemic dosing.

[4] = tested on: painful diabetic neuropathy; settings: cited from earlier work
[5] = tested on: pain associated with painful diabetic neuropathy (PDN)
Method: Pain was assessed each day using a pain diary using a standardized numerical pain rating scale (NPRS). The average pain for each week was calculated and the difference from baseline was determined (week x minus baseline). […] The baseline pain scores were imputed for missing data arising from premature withdrawal from the study (BOCF, baseline observation carried forward).
Capsaicin 0.1% was applied to the pretibial area between the knee and ankle in each patient. The area was occluded for 30 minutes, at which time patients rated the painfulness of the capsaicin stimulus. It was reasoned that in patients with PDN that the afferented group would detect and rate the capsaicin stimulus as painful, while the deafferented group would fail to detect the stimulus.

clinical = settings: human, in vivo
From the text: In study CLO-027, blood samples for PK analysis were obtained at baseline, and at Weeks 2 and 12 of treatment.

Structure (SMILES): Clc1cccc(Cl)c1N=C1NCCN1 [clonidine]
- Difference in pain between clonidine patches and placebo patches [1]: no statistically significant difference
- Lower threshold blood level considered necessary to treat hypertension [2]: 0.200 ng/mL
- Mean blood level [3]: below 0.1 ng/mg
- Patients with no detectable clonidine in the blood [3]: one third of patients had no detectable clonidine in the blood
- Pain reduction relative to placebo ([4]; responders rechallenged at highest patch dosage, p<0.015): modest although statistically significant
- Patients considered clonidine responders ([4]; twelve of forty-one patients who completed the initial course of treatment): 29%
- Efficacy over placebo in relieving diabetic pain (change in NPRS over time) ([5]; capsaicin pain rating of two or more, 0 to 10 scale (FIG. 4C)): significantly superior to placebo
- Efficacy over placebo in relieving diabetic pain (change in NPRS over time) ([5]; patients who did not detect the capsaicin stimulus (FIG. 4A)): no efficacy over placebo
- Efficacy over placebo in relieving diabetic pain (change in NPRS over time) ([5]; subjects who detected capsaicin, pain rating > 0 (FIG. 4B)): significantly superior to placebo
- concentration at 2 weeks (clinical): 0.017 ng/mL
- concentration at 12 weeks (clinical): 0.019 ng/mL
